From patent US9718835B2 (China Medical University Hospital, priority 2013, dated 2017)

Biological target: T1, Topo I (Homo sapiens, UniProt P11387)
T1 sequence (P11387 1-765): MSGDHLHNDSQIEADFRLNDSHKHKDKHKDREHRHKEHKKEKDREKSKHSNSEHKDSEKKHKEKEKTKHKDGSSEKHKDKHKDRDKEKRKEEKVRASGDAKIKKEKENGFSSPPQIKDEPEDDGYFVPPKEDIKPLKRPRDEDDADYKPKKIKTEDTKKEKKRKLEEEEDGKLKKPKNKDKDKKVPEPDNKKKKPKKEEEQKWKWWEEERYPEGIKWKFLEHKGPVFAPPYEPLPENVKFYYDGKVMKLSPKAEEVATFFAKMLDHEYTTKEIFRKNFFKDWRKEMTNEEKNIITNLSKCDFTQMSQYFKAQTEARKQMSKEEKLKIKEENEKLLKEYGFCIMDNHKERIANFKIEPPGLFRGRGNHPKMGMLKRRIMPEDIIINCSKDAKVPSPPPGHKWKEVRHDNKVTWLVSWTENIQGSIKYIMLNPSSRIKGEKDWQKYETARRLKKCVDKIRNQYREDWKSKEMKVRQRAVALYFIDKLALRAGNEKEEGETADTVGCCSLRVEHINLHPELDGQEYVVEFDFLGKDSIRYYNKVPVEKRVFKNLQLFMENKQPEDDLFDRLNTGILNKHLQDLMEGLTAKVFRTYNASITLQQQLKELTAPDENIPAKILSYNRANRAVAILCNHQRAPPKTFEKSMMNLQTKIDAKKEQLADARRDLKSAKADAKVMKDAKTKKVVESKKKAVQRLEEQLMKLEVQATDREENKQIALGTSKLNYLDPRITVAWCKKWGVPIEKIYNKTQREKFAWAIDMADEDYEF
Assay: Western blot analysis of Topo I expression
Format: cell-based
Set-up: endogenous in cells; host or cells: A-549
Conditions: after 8 h treatment
Text: First, we determined the effect of 9a on cell cycle distribution using flow cytometry analysis. […] Because it has been shown that 1-Topo I-DNA covalent complexes enhance the transcription-dependent degradation of Topo I via a 26S proteasome pathway,^32 the effects of 9a on the expression levels of Topo I and Topo II were investigated. […] Compound 9a acts directly on Topo I and results in the accumulation of covalent Topo I-DNA complexes followed by proteasomal Topo I degradation, which is the same effect as 1 and contributes to 9a's cytotoxicity.
Cells were harvested in PBS containing proteinase inhibitors and phosphatase inhibitors, and sonicated. Whole cell lysates were separated by SDS-PAGE and transferred to Immobilon P membrane (EMD Millipore). The membrane was incubated with primary antibody followed by labeling with horseradish peroxidase (HRP)-conjugated secondary antibody (EMD Millipore). Chemilluminence substrate kit (EMD Millipore) was used for detection of membrane-bound HRP, and visualized by the Luminsence image analyzer, LAS4000 (Fuji Photo Film Co., Japan).
Antibodies to caspase-3, caspase-8, caspase-9, PARP, phospho-ATM (Ser1981), ATM, phospho-ATR (Ser428), phospho-Chk1 (Ser345), phospho-Chk2 (Thr68), Chk2, phospho-H2AX (Ser139), and phospho-p53 (Ser15) were purchased from Cell Signaling Technology. […]

## CC[C@@]1(OC(=O)CNC(Cc2ccc(OC)cc2)=NS(=O)(=O)c2ccc(C)cc2)C(=O)OCc2c1cc1n(c2=O)Cc2cc3ccccc3nc2-1 [Compound 9a]
  protein levels of Topo I: significantly inhibited protein levels of Topo I
